Test results: patent publication US9440957B2, “Compounds and compositions for modulating EGFR Activity” (Novartis AG, priority 2012, dated 2016)
Where two headings read alike, the source gives them in different places.

Legend:
[1] = target: T1, EGFR(L858R/T790M) (Homo sapiens, UniProt P00533, L858R/T790M); experiment: EGFR biochemical assay (HTRF), IC50 determinations
T1 construct: purchased from Carna (GST-a.a. 669-1210)
How it was run: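 HTRF kinase reaction with biotin-TK peptide at room temperature, quenched with EDTA at 60 min and detected with PT66K/SAXL after 1 h. Without preincubation, enzyme starts the reaction with compound, ATP and peptide present. With preincubation, compound, enzyme and peptide sit at room temperature for a set time before ATP is added.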

[2] = target: H3255 (EGFR L858R) (Homo sapiens, UniProt P00533, L858R); experiment: EGFR target modulation in H3255 cell line (phospho-EGFR Y1173 ELISA); type: cell-based
Protocol: (§1) EGFR Target Modulation in H1975, H3255 and HCC827 Cell Lines Tissue Culture. Cells were maintained in 10% FBS/RPMI supplemented with 100 μg/ml Penicillin/Streptomycin (Hyclone #SH30236.01). […] The cells were allowed to incubate overnight in a 37° C., 5% CO2 humidified tissue culture incubator. […] The serial diluted compounds were transferred to the plate containing cells by using a 50 nl Pin Head device (Perkin Elmer) and the cells were placed back in the incubator for 3 hours. Phospho-EGFR ([…]) Target Modulation Assay. The media was reduced to 20 ul using a Bio-Tek ELx 405 SelectTM plate washer. […] The plates were shaken at 4° C. for 20 minutes. An aliquot of 25 ul from each well was transferred to pEGFR(Y1173) ELISA plates for analysis. Phospho-EGFR ([…]) ELISA. Solid white high-binding ELISA plates (Greiner #781074) were coated with 5 ug/ml anti-EGFR capture antibody (R&D Systems #AF231) overnight in 50 mM carbonate/bicarbonate pH 9.5 buffer. Plates were blocked with 1% BSA (Sigma #A7030) in PBS for 1 hour at room temperature. Wash steps were carried out with a Bio-Tek ELx405 SelectTM using 4 cycles of 100 ul TBS-T (20 mM Tris, 137 mM NaCl, 0.05% Tween-20) per well. […] Lysis was allowed to occur for 20 minutes on ice. A 25 ul aliquot was added to each well of the blocked ELISA plate and incubated overnight at 4° C. with gentle shaking. […] After washing, 1:2,000 anti-rabbit-HRP (Cell Signaling #7074) in 0.2% BSA/TBS-T was added and incubated for 1 hour at room temperature. Chemiluminescent detection was carried out with SuperSignal ELISA Pico substrate (ThermoScientific #37069). Signal was read on EnVision plate reader using built-in UltraLUM setting. Data Analysis. Control cells treated with EGF were set to 100% maximum response. […] With these parameters, the IC50's for each compound in each cell line was calculated using non-linear curve fitting analysis.

[3] = target: H1975 (EGFR L858/T790M) (Homo sapiens, UniProt P00533, L858R/T790M); experiment: EGFR target modulation in H1975 cell line (phospho-EGFR Y1173 ELISA); type: cell-based
Protocol: as §1

[4] = target: human EGFR L858R (NIH/3T3 cells) (Homo sapiens, UniProt P00533, L858R); experiment: EGFR target modulation in engineered NIH/3T3 cell lines (phospho-EGFR Y1068 AlphaLISA), EGFR L858R; type: cell-based; details: engineered NIH/3T3 cells, read-out: NIH3T3 IC50 (μM) EGFR (L858R)
How it was run: (§2)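 Engineered NIH/3T3 cells expressing EGFR variants treated 3 h at 37 °C with 12-point 1:3 compound series (top stock 10 μM); only WT cells stimulated with 50 ng/ml EGF for 5 min before lysis. Phospho-Y1068 measured by AlphaLISA with total-EGFR antibody; IC50 from non-linear fitting.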

[5] = target: human EGFR L858R/T790M (NIH/3T3 cells) (Homo sapiens, UniProt P00533, L858R/T790M); experiment: EGFR target modulation in engineered NIH/3T3 cell lines (phospho-EGFR Y1068 AlphaLISA), EGFR L858R/T790M; type: cell-based; details: engineered NIH/3T3 cells, read-out: NIH3T3 IC50 (μM) EGFR (L858R/T790M)
How it was run: as §2

[6] = target: HEKn (EGFR WT) (Homo sapiens, UniProt P00533); experiment: EGFR target modulation in HEKn (EGFR-WT) cell line (phospho-EGFR Y1173 ELISA); type: cell-based; details: value outside parentheses
Protocol: EGFR Target Modulation in HEKn (EGFR-WT) Cell Line Tissue Culture. Human neonatal epithelial keratinocytes (Invitrogen #C-001-5C) were maintained in EpiLife media (Invitrogen #[…]) supplemented with growth factors (Invitrogen #S-001-5). Cells were harvested with 0.05% Trypsin/EDTA (Hyclone #SH30236.01) and quenched with 5% FBS/EpiLife media. […] The serial diluted compounds were transferred to the plate containing cells by using a 50 nl Pin Head device (Perkin Elmer) and the cells were placed back in the incubator for 3 hours. […] Phospho-EGFR (Y1173) ELISA. Solid white high-binding ELISA plates (Greiner #781074) were coated with 5 ug/ml anti-EGFR capture antibody (R&D Systems #AF231) overnight in 50 mM carbonate/bicarbonate pH 9.5 buffer. […] Wash steps were carried out with a Bio-Tek ELx405 SelectTM using 4 cycles of 100 ul TBS-T (20 mM Tris, 137 mM NaCl, 0.05% Tween-20) per well. […] Lysis was allowed to occur for 20 minutes on ice. A 25 ul aliquot was added to each well of the blocked ELISA plate and incubated overnight at 4° C. with gentle shaking. […] After washing, 1:2,000 anti-rabbit-HRP (Cell Signaling #7074) in 0.2% BSA/TBS-T was added and incubated for 1 hour at room temperature. Chemiluminescent detection was carried out with SuperSignal ELISA Pico substrate (ThermoScientific #37069). Signal was read on EnVision plate reader using built-in UltraLUM setting. Data Analysis. Control cells treated with EGF were set to 100% maximum response. […] With these parameters, the IC50's for each compound in each cell line was calculated using non-linear curve fitting analysis.

[7] = target: human EGFR WT (NIH/3T3 cells, EGF-induced) (Homo sapiens, UniProt P00533); experiment: EGFR target modulation in engineered NIH/3T3 cell lines (phospho-EGFR Y1068 AlphaLISA), EGFR WT; type: cell-based; details: engineered NIH/3T3 cells, read-out: NIH3T3 IC50 (μM) EGFR (WT)
How it was run: as §2

[8] = EGFR (L858R/T790M) with 90 min pre-incubation, read-out: IC50 (μM) Column B
[9] = EGFR (L858R/T790M) with no pre-incubation, read-out: IC50 (μM) Column A

T1 sequence (P00533 669-1210 T790M/L858R): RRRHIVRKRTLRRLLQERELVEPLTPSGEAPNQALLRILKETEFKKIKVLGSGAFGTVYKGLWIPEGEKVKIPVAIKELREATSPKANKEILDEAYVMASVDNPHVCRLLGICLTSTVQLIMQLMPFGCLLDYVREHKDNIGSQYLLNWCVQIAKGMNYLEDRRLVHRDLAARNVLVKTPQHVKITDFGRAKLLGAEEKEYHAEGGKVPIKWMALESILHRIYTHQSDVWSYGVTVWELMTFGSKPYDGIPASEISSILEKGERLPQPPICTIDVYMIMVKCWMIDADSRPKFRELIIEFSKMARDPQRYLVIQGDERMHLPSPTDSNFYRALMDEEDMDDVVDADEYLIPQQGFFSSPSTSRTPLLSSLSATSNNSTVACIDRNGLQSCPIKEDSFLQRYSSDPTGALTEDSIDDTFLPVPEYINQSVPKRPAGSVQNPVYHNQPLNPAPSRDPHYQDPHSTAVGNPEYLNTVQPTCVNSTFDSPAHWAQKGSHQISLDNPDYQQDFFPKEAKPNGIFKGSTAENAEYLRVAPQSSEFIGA
human EGFR L858R (NIH/3T3 cells), sequence (P00533 25-1210 L858R): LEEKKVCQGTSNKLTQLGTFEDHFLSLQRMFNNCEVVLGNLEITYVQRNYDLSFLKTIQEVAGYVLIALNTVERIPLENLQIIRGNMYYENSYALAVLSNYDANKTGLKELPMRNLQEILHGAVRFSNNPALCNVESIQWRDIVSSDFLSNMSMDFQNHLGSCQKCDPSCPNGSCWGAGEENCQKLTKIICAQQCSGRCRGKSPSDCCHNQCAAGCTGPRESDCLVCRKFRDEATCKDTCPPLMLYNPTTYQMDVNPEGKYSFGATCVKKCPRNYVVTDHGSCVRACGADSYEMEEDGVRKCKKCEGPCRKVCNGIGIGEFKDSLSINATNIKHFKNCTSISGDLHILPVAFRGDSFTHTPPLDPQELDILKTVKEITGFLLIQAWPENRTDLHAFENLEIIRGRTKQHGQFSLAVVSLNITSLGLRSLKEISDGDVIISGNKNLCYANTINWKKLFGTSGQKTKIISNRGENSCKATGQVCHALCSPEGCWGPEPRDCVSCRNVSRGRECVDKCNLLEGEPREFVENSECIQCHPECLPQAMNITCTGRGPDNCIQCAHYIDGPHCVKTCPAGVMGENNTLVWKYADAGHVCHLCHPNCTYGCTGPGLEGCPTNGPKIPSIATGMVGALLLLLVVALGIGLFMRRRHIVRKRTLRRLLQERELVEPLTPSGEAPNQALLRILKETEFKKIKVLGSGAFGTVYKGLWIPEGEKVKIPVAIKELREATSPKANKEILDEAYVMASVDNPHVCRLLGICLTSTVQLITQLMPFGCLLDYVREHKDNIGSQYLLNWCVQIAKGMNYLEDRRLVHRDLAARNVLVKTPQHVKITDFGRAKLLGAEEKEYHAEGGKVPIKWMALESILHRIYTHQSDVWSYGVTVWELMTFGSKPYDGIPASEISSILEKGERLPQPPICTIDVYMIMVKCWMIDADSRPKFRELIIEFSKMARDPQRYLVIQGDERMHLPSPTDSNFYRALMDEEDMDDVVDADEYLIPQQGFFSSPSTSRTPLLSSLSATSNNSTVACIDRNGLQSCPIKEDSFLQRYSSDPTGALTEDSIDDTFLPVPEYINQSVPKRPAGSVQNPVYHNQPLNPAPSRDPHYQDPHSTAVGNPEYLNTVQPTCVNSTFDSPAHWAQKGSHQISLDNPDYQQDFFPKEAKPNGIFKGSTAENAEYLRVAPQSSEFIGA
H3255 (EGFR L858R), sequence (P00533 25-1210 L858R): as above
HEKn (EGFR WT), sequence (P00533 25-1210): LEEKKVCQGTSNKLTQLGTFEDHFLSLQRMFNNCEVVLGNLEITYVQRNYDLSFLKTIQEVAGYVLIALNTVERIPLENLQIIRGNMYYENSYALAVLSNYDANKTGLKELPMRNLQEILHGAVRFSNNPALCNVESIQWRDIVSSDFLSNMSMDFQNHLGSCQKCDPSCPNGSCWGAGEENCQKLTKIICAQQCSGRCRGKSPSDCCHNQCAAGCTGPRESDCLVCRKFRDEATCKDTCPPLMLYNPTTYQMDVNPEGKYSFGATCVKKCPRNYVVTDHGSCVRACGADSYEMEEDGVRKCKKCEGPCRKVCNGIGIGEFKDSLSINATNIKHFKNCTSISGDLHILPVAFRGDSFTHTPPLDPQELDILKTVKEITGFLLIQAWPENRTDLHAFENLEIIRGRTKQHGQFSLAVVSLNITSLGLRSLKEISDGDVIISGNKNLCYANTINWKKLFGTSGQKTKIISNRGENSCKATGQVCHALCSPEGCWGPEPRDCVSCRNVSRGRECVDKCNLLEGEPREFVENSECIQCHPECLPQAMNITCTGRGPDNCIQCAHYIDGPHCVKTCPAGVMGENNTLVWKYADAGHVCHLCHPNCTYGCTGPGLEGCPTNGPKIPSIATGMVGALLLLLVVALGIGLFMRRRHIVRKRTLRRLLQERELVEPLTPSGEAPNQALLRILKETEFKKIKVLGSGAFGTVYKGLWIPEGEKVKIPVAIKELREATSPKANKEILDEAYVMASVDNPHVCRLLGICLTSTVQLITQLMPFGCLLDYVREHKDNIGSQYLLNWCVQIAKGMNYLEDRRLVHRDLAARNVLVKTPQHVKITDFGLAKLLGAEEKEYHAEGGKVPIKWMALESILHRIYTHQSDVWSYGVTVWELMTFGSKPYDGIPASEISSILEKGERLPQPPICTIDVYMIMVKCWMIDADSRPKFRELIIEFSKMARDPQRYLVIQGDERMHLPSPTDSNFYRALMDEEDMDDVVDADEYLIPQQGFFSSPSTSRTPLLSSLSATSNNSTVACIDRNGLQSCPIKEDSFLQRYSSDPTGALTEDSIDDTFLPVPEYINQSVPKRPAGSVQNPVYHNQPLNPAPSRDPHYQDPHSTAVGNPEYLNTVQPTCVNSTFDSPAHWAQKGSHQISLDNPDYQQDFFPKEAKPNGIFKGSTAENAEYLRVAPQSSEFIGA

| IC50 [1, 8] | IC50 [1, 9] | IC50 [2] | IC50 [3] | IC50 [4] | IC50 [5] | IC50 [6] | IC50 [7] | SMILES |
| --- | --- | --- | --- | --- | --- | --- | --- | --- |
| 0.006 µM | 0.135 µM | 156 nM | 105 nM | 0.062 µM | 0.058 µM | > 10000 nM | 1.4 µM | Cc1cc(C(=O)Nc2nc3cccc(C)c3n2[C@@H]2CCCN(C(=O)/C=C/CN(C)C)C2)ccn1 [Example 17-4] |
| < 0.001 µM | 0.012 µM | 22 nM | 6 nM | 0.017 µM | 0.006 µM | 259 nM | 0.204 µM | C=CC(=O)N1CCCC[C@@H](n2c(NC(=O)c3ccnnc3)nc3cccc(Cl)c32)C1 [Example 17-15] |
| < 0.001 µM | 0.007 µM | 28 nM | 10 nM | 0.015 µM | 0.017 µM | 295 nM | 0.282 µM | CN(C)C/C=C/C(=O)N1CCCC[C@@H](n2c(NC(=O)c3ccnnc3)nc3cccc(Cl)c32)C1 [Example 17-16] |
| < 0.001 µM | 0.004 µM | 8 nM | 3 nM | 0.008 µM | 0.005 µM | 176 nM | 0.211 µM | C=CC(=O)N1CCCC[C@@H](n2c(NC(=O)c3ccnc(C)c3)nc3cccc(Cl)c32)C1 [Example 17-17] |
| < 0.001 µM | 0.006 µM | 9 nM | 7 nM | 0.005 µM | 0.006 µM | 225 nM | 0.094 µM | Cc1cccc2nc(NC(=O)c3ccnnc3)n(C3CCCCN(C(=O)/C=C/CN(C)C)C3)c12 (centres unmarked) [Example 17-24] |
| < 0.001 µM | < 0.002 µM | 26 nM | 2 nM | 0.002 µM | < 0.001 µM | 251 nM | 0.057 µM | Cc1cccc2nc(NC(=O)c3cccc(C(F)(F)F)c3)n(C3CCCCN(C(=O)/C=C/CN(C)C)C3)c12 (centres unmarked) [Example 17-25] |
| < 0.001 µM | 0.005 µM | 15 nM | 5 nM | 0.003 µM | 0.005 µM | 190 nM | 0.139 µM | Cc1cccc2nc(NC(=O)c3ccc(F)cc3)n(C3CCCCN(C(=O)/C=C/CN(C)C)C3)c12 (centres unmarked) [Example 17-26] |
| 0.002 µM | 0.021 µM | 88 nM | 12 nM | 0.012 µM | 0.005 µM | 1000 nM | 0.67 µM | Cc1cccc2nc(NC(=O)c3cccc(F)c3F)n(C3CCCCN(C(=O)/C=C/CN(C)C)C3)c12 (centres unmarked) [Example 17-27] |
| < 0.001 µM | 0.014 µM | 81 nM | 24 nM | 0.004 µM | 0.01 µM | 370 nM | 0.283 µM | Cc1cccc2nc(NC(=O)c3ccc(F)cc3F)n(C3CCCCN(C(=O)/C=C/CN(C)C)C3)c12 (centres unmarked) [Example 17-28] |
| < 0.001 µM | 0.02 µM | 290 nM | 93 nM | 0.028 µM | 0.017 µM | 2610 nM | 0.82 µM | Cc1cccc2nc(NC(=O)c3cc(F)ccc3F)n(C3CCCCN(C(=O)/C=C/CN(C)C)C3)c12 (centres unmarked) [Example 17-29] |
| < 0.001 µM | 0.005 µM | 37 nM | 10 nM | 0.003 µM | 0.004 µM | 313 nM | 0.167 µM | Cc1cccc2nc(NC(=O)c3ccc(F)c(F)c3)n(C3CCCCN(C(=O)/C=C/CN(C)C)C3)c12 (centres unmarked) [Example 17-30] |
| < 0.001 µM | 0.008 µM | 65 nM | 5 nM | 0.002 µM | 0.005 µM | 259 nM | 0.224 µM | Cc1cccc2nc(NC(=O)c3cc(F)c(F)c(F)c3)n(C3CCCCN(C(=O)/C=C/CN(C)C)C3)c12 (centres unmarked) [Example 17-33] |
| < 0.001 µM | 0.006 µM | 5 nM | 4 nM | 0.005 µM | 0.005 µM | 285 nM | 0.14 µM | Cc1cccc2nc(NC(=O)c3ccncc3)n(C3CCCCN(C(=O)/C=C/CN(C)C)C3)c12 (centres unmarked) [Example 17-35] |
| 0.005 µM | 0.062 µM | 135 nM | 128 nM | 0.032 µM | 0.042 µM | > 10000 nM | 1.65 µM | Cc1cccc2nc(NC(=O)c3ccncn3)n(C3CCCCN(C(=O)/C=C/CN(C)C)C3)c12 (centres unmarked) [Example 17-37] |
| < 0.001 µM | 0.007 µM | 130 nM | 7 nM | 0.017 µM | 0.008 µM | 760 nM | 0.49 µM | Cc1cccc2nc(NC(=O)c3ccccc3)n(C3CCCCN(C(=O)/C=C/CN(C)C)C3)c12 (centres unmarked) [Example 17-40] |
| < 0.001 µM | < 0.002 µM | 13 nM | 2 nM | 0.002 µM | 0.002 µM | 206 nM | 0.053 µM | Cc1cccc2nc(NC(=O)c3cccc(C#N)c3)n(C3CCCCN(C(=O)/C=C/CN(C)C)C3)c12 (centres unmarked) [Example 17-42] |
| < 0.001 µM | 0.006 µM | 3 nM | 7 nM | 0.002 µM | 0.003 µM | 142 nM | 0.057 µM | COc1ccc(C(=O)Nc2nc3cccc(C)c3n2C2CCCCN(C(=O)/C=C/CN(C)C)C2)cn1 (centres unmarked) [Example 17-45] |
| 0.005 µM | 0.092 µM | 5 nM | 132 nM | 0.002 µM | 0.031 µM | 212 nM | 0.057 µM | Cc1cccc2nc(NC(=O)c3ccc(C(F)(F)F)nc3)n(C3CCCCN(C(=O)/C=C/CN(C)C)C3)c12 (centres unmarked) [Example 17-46] |
| < 0.001 µM | 0.009 µM | 4 nM | 17 nM | 0.002 µM | 0.003 µM | 186 nM | 0.052 µM | Cc1ccc(C(=O)Nc2nc3cccc(C)c3n2C2CCCCN(C(=O)/C=C/CN(C)C)C2)cn1 (centres unmarked) [Example 17-47] |
